Test results from patent publication US9493506B2 (Enanta Pharmaceuticals, Inc., priority 2010, dated 2016).

Experiments:
dog PK experiment = conditions: in vivo; for bioavailability: dog PK experiment, 3 mg/kg, read-out: F value (bioavailability); for AUC: dog, dosed at 3 mg/kg
Description: Those of ordinary skill in the art are aware of the biological assays utililized to test the compounds of the invention. Regarding bioavailability data (F values), a more thorough explanation can be found in Rowland, M and Tozer, T Clinical Pharmacokinetics: Concepts and Applications Lippincott, Williams & Wilkins 3rd ed. 1995, (specifically covered on page 43).

[1] = test system: HCV replicon with a D168E mutation in a 1a-H77 background; assay: transient replicon assay, D168E mutation in 1a-H77 background; assay type: cell-based, hepatitis C virus (genotype 1a-H77); conditions: Hepatitis C virus, read-out: EC50 in a transient replicon assay with a D168E mutation in a 1a-H77 background
Method in brief: (§1)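 Transient transfection of mutant replicon RNA (1a-H77 with NS2–NS5B, or 1b-N with NS3–NS5B plus E1202G/S2204I) by electroporation into IFN-cured Huh7 cells, plated at 7.5×10^3 cells per well in DMEM with 5% FBS. Serial compound dilutions added 4 h post-transfection (0.5% DMSO final).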

[2] = test system: HCV replicon with a D168V mutation in a 1a-H77 background; assay: transient replicon assay, D168V mutation in 1a-H77 background; assay type: cell-based, hepatitis C virus (genotype 1a-H77); conditions: Hepatitis C virus, read-out: EC50 in a transient replicon assay with a D168V mutation in a 1a-H77 background
Method in brief: as §1

[3] = test system: HCV replicon with a R155K mutation in a 1a-H77 background; assay: transient replicon assay, R155K mutation in 1a-H77 background; assay type: cell-based, hepatitis C virus (genotype 1a-H77); conditions: Hepatitis C virus, read-out: EC50 in a transient replicon assay with a R155K mutation in a 1a-H77 background
Method in brief: as §1

Q: With O=C(N[C@H]1CCCCC/C=C\[C@@H]2C[C@@]2(C(=O)NS(=O)(=O)C2CC2)NC(=O)[C@@H]2C[C@@H](Oc3nc4ccccc4nc3C(F)(F)F)CN2C1=O)c1ccon1 [Example 15, N-((2R,6S,13aS,14aR,16aS,Z)-14a-(cyclopropylsulfonylcarbamoyl)-5,16-dioxo-2-(3-(trifluoromethyl)quinoxalin-2-yloxy)-1,2,3,5,6,7,8,9,10,11,13a,14,14a,15,16,16a-hexadecahydrocyclopropa[e]pyrrolo[1,2-a][1,4]diazacyclopentadecin-6-yl)isoxazole-3-carboxamide] as the molecule, how does the bioavailability (dog PK experiment) read?
A: Its bioavailability is greater than 100%.

Q: What about the AUC (dog PK experiment) of the same molecule?
A: The AUC was 3300 ng·h/mL.

Q: With Cc1cc(C(=O)N[C@H]2CCCCC/C=C\[C@@H]3C[C@@]3(C(=O)NS(=O)(=O)C3CC3)NC(=O)[C@@H]3C[C@@H](Oc4nc5cc(F)ccc5nc4C(C)(F)F)CN3C2=O)no1 [Example 117, N-((2R,6S,13aS,14aR,16aS,Z)-14a-(cyclopropylsulfonylcarbamoyl)-2-(3-(1,1-difluoroethyl)-7-fluoroquinoxalin-2-yloxy)-5,16-dioxo-1,2,3,5,6,7,8,9,10,11,13a,14,14a,15,16,16a-hexadecahydrocyclopropa[e]pyrrolo[1,2-a][1,4]diazacyclopentadecin-6-yl)-5-methylisoxazole-3-carboxamide] as the molecule, how does the EC50 [1] read?
A: The EC50 was less than 3 nM.

Q: What about the EC50 [2] of the same molecule?
A: The EC50 was less than 25 nM.

Q: And the EC50 [3]?
A: The EC50 was less than 1 nM.

Q: And the bioavailability (dog PK experiment)?
A: The bioavailability was 63%.

Q: What about the AUC (dog PK experiment) of the same molecule?
A: The AUC was 63000 ng·h/mL.

Q: Which results are given for Cc1cc(C(=O)N[C@H]2CCCCC/C=C\[C@@H]3C[C@@]3(C(=O)NS(=O)(=O)C3(C)CC3)NC(=O)[C@@H]3C[C@@H](Oc4nc5cc(F)ccc5nc4C)CN3C2=O)no1 [Example 23, N-((2R,6S,13aS,14aR,16aS,Z)-2-(7-fluoro-3-methylquinoxalin-2-yloxy)-14a-(1-methylcyclopropylsulfonylcarbamoyl)-5,16-dioxo-1,2,3,5,6,7,8,9,10,11,13a,14,14a,15,16,16a-hexadecahydrocyclopropa[e]pyrrolo[1,2-a][1,4]diazacyclopentadecin-6-yl)-5-methylisoxazole-3-carboxamide]?
A: EC50 [1]: 3 to 20 nM; EC50 [2]: < 25 nM; EC50 [3]: 1 to 10 nM; bioavailability (dog PK experiment): 86%; AUC (dog PK experiment): 201000 ng·h/mL

Q: With Cc1cc(C(=O)N[C@H]2CCCCC/C=C\[C@@H]3C[C@@]3(C(=O)NS(=O)(=O)C3(C)CC3)NC(=O)[C@@H]3C[C@@H](Oc4nc5cc(F)cc(Br)c5nc4C)CN3C2=O)no1 [Example 101, N-((2R,6S,13aS,14aR,16aS,Z)-2-(5-bromo-7-fluoro-3-methylquinoxalin-2-yloxy)-14a-(1-methylcyclopropylsulfonylcarbamoyl)-5,16-dioxo-1,2,3,5,6,7,8,9,10,11,13a,14,14a,15,16,16a-hexadecahydrocyclopropa[e]pyrrolo[1,2-a][1,4]diazacyclopentadecin-6-yl)-5-methylisoxazole-3-carboxamide] as the molecule, how does the EC50 [1] read?
A: The EC50 was 3 to 20 nM.

Q: What about the EC50 [2] of the same molecule?
A: Its EC50 is less than 25 nM.

Q: And the EC50 [3]?
A: Its EC50 is less than 1 nM.

Q: What about the bioavailability (dog PK experiment) of the same molecule?
A: Its bioavailability is greater than 100%.

Q: What about the AUC (dog PK experiment) of the same molecule?
A: Its AUC is 84000 ng·h/mL.

Q: Which EC50 [1] does the source give for Cc1cc(C(=O)N[C@H]2CCCCC/C=C\[C@@H]3C[C@@]3(C(=O)NS(=O)(=O)C3CC3)NC(=O)[C@@H]3C[C@@H](Oc4nc5ccccc5nc4C(F)(F)F)CN3C2=O)no1 [Example 10, N-((2R,6S,13aS,14aR,16aS,Z)-14a-(cyclopropylsulfonylcarbamoyl)-5,16-dioxo-2-(3-(trifluoromethyl)quinoxalin-2-yloxy)-1,2,3,5,6,7,8,9,10,11,13a,14,14a,15,16,16a-hexadecahydrocyclopropa[e]pyrrolo[1,2-a][1,4]diazacyclopentadecin-6-yl)-5-methylisoxazole-3-carboxamide] here?
A: The EC50 was less than 3 nM.

Q: And the EC50 [2]?
A: Its EC50 is 25 to 50 nM.

Q: And the EC50 [3]?
A: The EC50 was less than 1 nM.

Q: And the bioavailability (dog PK experiment)?
A: Its bioavailability is greater than 100%.

Q: What about the AUC (dog PK experiment) of the same molecule?
A: The AUC was 27000 ng·h/mL.

Q: For Cc1onc(C(=O)N[C@H]2CCCCC/C=C\[C@@H]3C[C@@]3(C(=O)NS(=O)(=O)C3CC3)NC(=O)[C@@H]3C[C@@H](Oc4nc5ccccc5nc4C(F)(F)F)CN3C2=O)c1C [Example 16, N-((2R,6S,13aS,14aR,16aS,Z)-14a-(cyclopropylsulfonylcarbamoyl)-5,16-dioxo-2-(3-(trifluoromethyl)quinoxalin-2-yloxy)-1,2,3,5,6,7,8,9,10,11,13a,14,14a,15,16,16-hexadecahydrocyclopropa[e]pyrrolo[1,2-a][1,4]diazacyclopentadecin-6-yl)-4,5-dimethylisoxazole-3-carboxamide], which EC50 [1] is on record?
A: The EC50 was less than 3 nM.

Q: And the EC50 [2]?
A: Its EC50 is less than 25 nM.

Q: And the EC50 [3]?
A: Its EC50 is less than 1 nM.

Q: And the bioavailability (dog PK experiment)?
A: Its bioavailability is 66%.

Q: And the AUC (dog PK experiment)?
A: Its AUC is 2100 ng·h/mL.

Q: With Cc1cc(C(=O)N[C@H]2CCCCC/C=C\[C@@H]3C[C@@]3(C(=O)NS(=O)(=O)C3(C)CC3)NC(=O)[C@@H]3C[C@@H](Oc4nc5cc(F)ccc5nc4C(F)(F)F)CN3C2=O)no1 [Example 111, N-((2R,6S,13aS,14aR,16aS,Z)-2-(7-fluoro-3-(trifluoromethyl)quinoxalin-2-yloxy)-14a-(1-methylcyclopropylsulfonylcarbamoyl)-5,16-dioxo-1,2,3,5,6,7,8,9,10,11,13a,14,14a,15,16,16a-hexadecahydrocyclopropa[e]pyrrolo[1,2-a][1,4]diazacyclopentadecin-6-yl)-5-methylisoxazole-3-carboxamide] as the molecule, how does the EC50 [1] read?
A: Its EC50 is less than 3 nM.

Q: What about the EC50 [2] of the same molecule?
A: The EC50 was less than 25 nM.

Q: What about the EC50 [3] of the same molecule?
A: Its EC50 is less than 1 nM.

Q: What about the bioavailability (dog PK experiment) of the same molecule?
A: Its bioavailability is 88%.

Q: And the AUC (dog PK experiment)?
A: The AUC was 141000 ng·h/mL.

Q: With Cc1cc(C(=O)N[C@H]2CCCCC/C=C\[C@@H]3C[C@@]3(C(=O)NS(=O)(=O)C3CC3)NC(=O)[C@@H]3C[C@@H](Oc4nc5cc(F)ccc5nc4C(F)(F)F)CN3C2=O)no1 [Example 107, N-((2R,6S,13aS,14aR,16aS,Z)-14a-(cyclopropylsulfonylcarbamoyl)-2-(7-fluoro-3-(trifluoromethyl)quinoxalin-2-yloxy)-5,16-dioxo-1,2,3,5,6,7,8,9,10,11,13a,14,14a,15,16,16a-hexadecahydrocyclopropa[e]pyrrolo[1,2-a][1,4]diazacyclopentadecin-6-yl)-5-methylisoxazole-3-carboxamide] as the molecule, how does the EC50 [1] read?
A: The EC50 was less than 3 nM.

Q: And the EC50 [2]?
A: Its EC50 is less than 25 nM.

Q: What about the EC50 [3] of the same molecule?
A: The EC50 was less than 1 nM.

Q: And the bioavailability (dog PK experiment)?
A: The bioavailability was 74%.

Q: What about the AUC (dog PK experiment) of the same molecule?
A: Its AUC is 54000 ng·h/mL.

Q: What does the source list for Cc1cc(C(=O)N[C@H]2CCCCC/C=C\[C@@H]3C[C@@]3(C(=O)NS(=O)(=O)C3CC3)NC(=O)[C@@H]3C[C@@H](Oc4nc5c(F)cccc5nc4C)CN3C2=O)no1 [Example 56, N-((2R,6S,13aS,14aR,16aS,Z)-14a-(cyclopropylsulfonylcarbamoyl)-2-(8-fluoro-3-methylquinoxalin-2-yloxy)-5,16-dioxo-1,2,3,5,6,7,8,9,10,11,13a,14,14a,15,16,16a-hexadecahydrocyclopropa[e]pyrrolo[1,2-a][1,4]diazacyclopentadecin-6-yl)-5-methylisoxazole-3-carboxamide]?
A: EC50 [1]: 20 to 50 nM; EC50 [2]: 50 to 250 nM; EC50 [3]: 1 to 10 nM; bioavailability (dog PK experiment): > 100%; AUC (dog PK experiment): 10800 ng·h/mL

Q: With Cc1cc(C(=O)N[C@H]2CCCCC/C=C\[C@@H]3C[C@@]3(C(=O)NS(=O)(=O)C3(C)CC3)NC(=O)[C@@H]3C[C@@H](Oc4nc5cc(F)ccc5nc4C(C)(F)F)CN3C2=O)no1 [Example 119, N-((2R,6S,13aS,14aR,16aS,Z)-2-(3-(1,1-difluoroethyl)-7-fluoroquinoxalin-2-yloxy)-14a-(1-methylcyclopropylsulfonylcarbamoyl)-5,16-dioxo-1,2,3,5,6,7,8,9,10,11,13a,14,14a,15,16,16a-hexadecahydrocyclopropa[e]pyrrolo[1,2-a][1,4]diazacyclopentadecin-6-yl)-5-methylisoxazole-3-carboxamide] as the molecule, how does the EC50 [1] read?
A: Its EC50 is less than 3 nM.

Q: What about the EC50 [2] of the same molecule?
A: The EC50 was less than 25 nM.

Q: And the EC50 [3]?
A: The EC50 was less than 1 nM.

Q: And the bioavailability (dog PK experiment)?
A: The bioavailability was 64%.

Q: What about the AUC (dog PK experiment) of the same molecule?
A: Its AUC is 30000 ng·h/mL.

Q: With Cc1cc(C(=O)N[C@H]2CCCCC/C=C\[C@@H]3C[C@@]3(C(=O)NS(=O)(=O)C3CC3)NC(=O)[C@@H]3C[C@@H](Oc4nc5ccccc5nc4C(C)(F)F)CN3C2=O)no1 [Example 2, N-((2R,6S,13aS,14aR,16aS,Z)-14a-(cyclopropylsulfonylcarbamoyl)-2-(3-(1,1-difluoroethyl)quinoxalin-2-yloxy)-5,16-dioxo-1,2,3,5,6,7,8,9,10,11,13a,14,14a,15,16,16a-hexadecahydrocyclopropa[e]pyrrolo[1,2-a][1,4]diazacyclopentadecin-6-yl)-5-methylisoxazole-3-carboxamide] as the molecule, how does the EC50 [1] read?
A: Its EC50 is less than 3 nM.

Q: And the EC50 [2]?
A: The EC50 was 25 to 50 nM.

Q: And the EC50 [3]?
A: The EC50 was less than 1 nM.

Q: What about the bioavailability (dog PK experiment) of the same molecule?
A: Its bioavailability is greater than 100%.

Q: What about the AUC (dog PK experiment) of the same molecule?
A: Its AUC is 4500 ng·h/mL.

Q: Which EC50 [1] does the source give for Cc1cc(C(=O)N[C@H]2CCCCC/C=C\[C@@H]3C[C@@]3(C(=O)NS(=O)(=O)C3CC3)NC(=O)[C@@H]3C[C@@H](Oc4nc5cc(F)ccc5nc4C)CN3C2=O)no1 [Example 22, N-((2R,6S,13aS,14aR,16aS,Z)-14a-(cyclopropylsulfonylcarbamoyl)-2-(7-fluoro-3-methylquinoxalin-2-yloxy)-5,16-dioxo-1,2,3,5,6,7,8,9,10,11,13a,14,14a,15,16,16a-hexadecahydrocyclopropa[e]pyrrolo[1,2-a][1,4]diazacyclopentadecin-6-yl)-5-methylisoxazole-3-carboxamide] here?
A: The EC50 was 3 to 20 nM.

Q: And the EC50 [2]?
A: The EC50 was 25 to 50 nM.

Q: What about the EC50 [3] of the same molecule?
A: Its EC50 is 1 to 10 nM.

Q: And the bioavailability (dog PK experiment)?
A: The bioavailability was greater than 100%.

Q: And the AUC (dog PK experiment)?
A: Its AUC is 54000 ng·h/mL.
